Measured values from US12605402B2, “Therapeutic uses of oxidizing hypotonic acid solutions” (APR Applied Pharma Research SA, priority 2019, dated 2026).
Where two headings read alike, the source gives them in different places.

Key:
[1] = test system: SARS-CoV-2; format: cell-based; conditions: concentration 90% (solution), 63% (ethanol); for Virus Titer: virus control 3.5
[2] = test system: Vero 76 cells

CCO [Ethanol]
LRV (log reduction value) compared to the virus control ([1]; Contact Time 3 min): >1.8
Virus Titer ([1]; Contact Time 3 min): <1.7 Log10 CCID50 of virus per 0.1 mL
LRV (log reduction value) compared to the virus control ([1]; Contact Time <1 min): >1.8
Virus Titer ([1]; Contact Time <1 min): <1.7 Log10 CCID50 of virus per 0.1 mL
toxicity to cells [2]: toxic to cells
